From the OligoGym collection
Bases are written 5' to 3'; sugars and linkages follow in the same order, as letters with counts (s phosphorothioate, o phosphodiester; PS: all linkages phosphorothioate). The collection does not say whether C is 5-methylated. l = locked nucleic acid (LNA); d = 2'-deoxy (DNA)

biological target: Tau; test: rat primary cortical neurons, FLIPR, 25 uM ASO

Sequence	calcium oscillation score
TCCTGTGCTTCAGG (sugars l3 d8 l3, PS)	108 % of control
TCCTGTGCTTCAGGCC (sugars l3 d10 l3, PS)	75.5 % of control
TCCTTCTAAGTACAAT (sugars l4 d8 l4, PS)	54.1 % of control
TCCTTCTTCATTCTTG (sugars l3 d10 l3, PS)	23.8 % of control
TCCTTGAAGTCAAGCTTCTC (sugars l3 d14 l3, PS)	49.8 % of control
TCCTTTGTAATTCCTTCT (sugars l3 d13 l2, PS)	56.4 % of control
TCGAAACCAAGGTCCCACCA (sugars l3 d14 l3, PS)	28.2 % of control
TCGATGCTGCCGGT (sugars l3 d8 l3, PS)	13 % of control
TCGATGCTGCCGGTGG (sugars l3 d10 l3, PS)	33.9 % of control
TCGCGGAAGGTCAGCTTGTG (sugars l3 d14 l3, PS)	20.3 % of control
TCGCTTCCAGTCCC (sugars l3 d8 l3, PS)	142 % of control
TCGCTTCCAGTCCCGT (sugars l3 d10 l3, PS)	110 % of control
TCGTCAGCTAGCGTGG (sugars l3 d10 l3, PS)	55.2 % of control
TCTAAGTAGACCCTGGCCAC (sugars l3 d14 l3, PS)	23.8 % of control
TCTAATTTAGTCACCAT (sugars l4 d10 l3, PS)	96 % of control
TCTACATTTTTGTCTCA (sugars l3 d11 l3, PS)	47.1 % of control
TCTACCATGTCGATGC (sugars l3 d10 l3, PS)	51.8 % of control
TCTAGTTATACAGTTGGCCC (sugars l3 d14 l3, PS)	21.4 % of control
TCTCAAAAATCAACGCC (sugars l4 d10 l3, PS)	94.5 % of control
TCTCAAATCAAACTAATAT (sugars l4 d11 l4, PS)	58.1 % of control
TCTCAAGTCTTATTCTC (sugars l3 d11 l3, PS)	38.6 % of control
TCTCAGATTTTACTTCC (sugars l4 d11 l2, PS)	49.3 % of control
TCTCAGCTCTTCCATAAGCA (sugars l3 d14 l3, PS)	82.6 % of control
TCTCAGTGGAGCCGATCTTG (sugars l3 d14 l3, PS)	0 % of control
TCTCGCGGAAGGTC (sugars l3 d8 l3, PS)	75.7 % of control
TCTCTAATTGTCCAATA (sugars l4 d9 l4, PS)	69 % of control
TCTCTCTAGACATCTCA (sugars l2 d12 l3, PS)	68.4 % of control

Sequence	calcium oscillation score
TCTCTCTTAACTTTATTTTA (sugars l3 d13 l4, PS)	80.8 % of control
TCTCTGCTTACAAAATC (sugars l4 d9 l4, PS)	66.8 % of control
TCTCTTAACTTTATTTTATT (sugars l4 d12 l4, PS)	84.9 % of control
TCTGGCATGGGCACG (sugars l3 d9 l3, PS)	119 % of control
TCTGTCACTTACTACTCA (sugars l3 d13 l2, PS)	66 % of control
TCTGTCTTGGCTTTG (sugars l3 d9 l3, PS)	40.6 % of control
TCTTAATTCATTTAATTCTC (sugars l4 d12 l4, PS)	87.1 % of control
TCTTACAGCCAAATGCAGTC (sugars l3 d14 l3, PS)	23.9 % of control
TCTTAGAGGACTGCAACGCA (sugars l3 d14 l3, PS)	25.7 % of control
TCTTAGCATCAGAGGTTTCA (sugars l3 d14 l3, PS)	18.5 % of control
TCTTAGTCATCTTCCCT (sugars l3 d12 l2, PS)	68.6 % of control
TCTTATTGCTTTCCAAT (sugars l3 d10 l4, PS)	101 % of control
TCTTCACATCCCAACTA (sugars l2 d12 l3, PS)	126 % of control
TCTTCAGGTCTGGCAT (sugars l3 d10 l3, PS)	39.1 % of control
TCTTCATTCTTGCCCA (sugars l2 d12 l2, PS)	38.1 % of control
TCTTCCACTACAAGCTCC (sugars l2 d14 l2, PS)	55.8 % of control
TCTTCCATCACTTCGAACTC (sugars l3 d14 l3, PS)	45.2 % of control
TCTTCCTTTGTAATTCCT (sugars l3 d13 l2, PS)	57.9 % of control
TCTTCTAATATCCTTGC (sugars l3 d11 l3, PS)	55.7 % of control
TCTTGGCGGAAGACGG (sugars l3 d10 l3, PS)	100 % of control
TCTTGTGATGCAGGA (sugars l3 d9 l3, PS)	91.8 % of control
TCTTGTTCTAACCCCACA (sugars l2 d14 l2, PS)	68.1 % of control
TCTTTATTAACACTCCA (sugars l4 d10 l3, PS)	72.6 % of control
TCTTTATTAACACTCCAC (sugars l2 d12 l4, PS)	64.6 % of control
TCTTTATTAACACTCCACA (sugars l4 d13 l2, PS)	62.5 % of control
TCTTTGAACACCCCATCT (sugars l2 d14 l2, PS)	41 % of control
TCTTTGCTTTTACTGACCAT (sugars l3 d14 l3, PS)	29.6 % of control

Sequence	calcium oscillation score
TGAACAGGAGAGCCATTTCC (sugars l3 d14 l3, PS)	7.14 % of control
TGAAGTCAAGCTTCTCAGAT (sugars l3 d14 l3, PS)	0 % of control
TGAAGTCCCGAGCCAAAGCC (sugars l3 d14 l3, PS)	0 % of control
TGAATAACATTAACCC (sugars l4 d8 l4, PS)	54 % of control
TGACCTCAACTCTACC (sugars l4 d10 l2, PS)	68.5 % of control
TGAGCACTAACTCTAAGTAG (sugars l3 d14 l3, PS)	21.4 % of control
TGAGCCACACTTGGAGGTCA (sugars l3 d14 l3, PS)	4.52 % of control
TGATAAAACATCCCTA (sugars l4 d8 l4, PS)	80.5 % of control
TGATACCCTTCCTCAG (sugars l2 d12 l2, PS)	4.76 % of control
TGATATTATCCTTTGAGCCA (sugars l3 d14 l3, PS)	27.4 % of control
TGATATTGTCCAGGGACCCA (sugars l3 d14 l3, PS)	0 % of control
TGATCACCCTAAACCA (sugars l3 d10 l3, PS)	118 % of control
TGATCTTAGGCTGGC (sugars l3 d9 l3, PS)	44.1 % of control
TGATGCAGGAGTTGTA (sugars l3 d10 l3, PS)	7.62 % of control
TGATGGATGTTGCCTA (sugars l3 d10 l3, PS)	29.6 % of control
TGATGGATGTTGCCTAATGA (sugars l3 d14 l3, PS)	0 % of control
TGATTAACCAATTAACCGAA (sugars l3 d14 l3, PS)	2.59 % of control
TGATTGTGGGCTTA (sugars l3 d8 l3, PS)	28.7 % of control
TGATTGTGGGCTTAGG (sugars l3 d10 l3, PS)	2.71 % of control
TGCAAACACTCCCTCT (sugars l2 d10 l4, PS)	35.4 % of control
TGCAAGAGTCACTGCACTGC (sugars l3 d14 l3, PS)	23.8 % of control
TGCAATTTCCTTTCCAT (sugars l3 d11 l3, PS)	67.6 % of control
TGCACCCACTTTCCTAAT (sugars l4 d12 l2, PS)	56.2 % of control
TGCCCATTCAAAATCTT (sugars l3 d11 l3, PS)	74.3 % of control
TGCCTAATGAGCCACA (sugars l3 d10 l3, PS)	44.4 % of control
